The results in this text go back to publication PMC11768739 (Viruses, 2025).

Each structure is given as a SMILES string. Read-outs that look alike come from different tables or passages of the source.

Assay [1] deals with T1, EV68-3C protease (enterovirus D68, UniProt A1E4A3). In words: FRET peptide cleavage assay (DABCYL/EDANS 10-mer, 2C/3A site). The assay is classed as biochemical.
The target in assay [2] is T1, EV68-3C protease. The assay is described as above. The conditions noted are these: covalent (irreversible); 60 min preincubation; 25 nM enzyme; 10 μM substrate; 50 mM HEPES pH 7.5, 100 mM NaCl, 3% DMSO; unreliable is not stated. The assay is classed as biochemical.

Broadly, the IC50 is the concentration needed to halve the response being measured.

T1 sequence (A1E4A3 entry or part of it): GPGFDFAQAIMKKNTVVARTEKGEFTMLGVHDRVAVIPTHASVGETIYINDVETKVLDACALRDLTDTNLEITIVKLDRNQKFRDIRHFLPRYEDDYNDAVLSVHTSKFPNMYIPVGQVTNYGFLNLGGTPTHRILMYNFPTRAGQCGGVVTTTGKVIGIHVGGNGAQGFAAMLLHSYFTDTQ

`COc1cccc2[nH]c(C(=O)N[C@@H](CC(C)C)C(=O)N[C@@H](C[C@@H]3CCNC3=O)C(=O)CO)cc12` [PF-00835231] registered an IC50 at EV68-3C protease [1] of 1800 ± 200 nM.

For `Cn1cnc(Cn2c(=O)[nH]/c(=N\c3cc4cn(C)nc4cc3Cl)n(Cc3cc(F)c(F)cc3F)c2=O)n1` [ensitrelvir], the IC50 against EV68-3C protease [1] was more than 10000 nM.

Consider `CC(C)(C)[C@H](NC(=O)C(F)(F)F)C(=O)N1C[C@H]2[C@@H]([C@H]1C(=O)N[C@H](C#N)C[C@@H]1CCNC1=O)C2(C)C` [nirmatrelvir], for which the IC50 at EV68-3C protease [1] was more than 10000 nM.

`CCOC(=O)/C=C/[C@H](C[C@@H]1CCNC1=O)NC(=O)[C@@H](CC(=O)[C@@H](NC(=O)c1cc(C)on1)C(C)C)Cc1ccc(F)cc1` [rupintrivir]: the “IC50” value on EV68-3C protease [2] was 7.8 ± 0.6 nM.
